“And” between values parts separate entries of the source, which are not always exact repeats. Identical values can stand only once. Like-named read-outs stand apart in the source and are kept apart here.
Legend:
P. falciparum Dd2-2D4 = assay: P. falciparum asexual blood stage (ABS) growth assay, SYBR Green, 72 h, wild-type parasites; type: cell-based, Plasmodium falciparum; details: Plasmodium falciparum, DD2; SI Fig 16b; values on -log scale; read-out: ABS - Dd2-2D4 (converted)
PfcProRS = molecular target: T1, PfcProRS (Plasmodium falciparum, UniProt Q8I5R7); type: binding; details: for dose-response signal (normalized), SI Fig 8: single replicates
T1 construct: made in house; host or cells: E. coli SoluBL-21
T1 sequence (Q8I5R7 249-746): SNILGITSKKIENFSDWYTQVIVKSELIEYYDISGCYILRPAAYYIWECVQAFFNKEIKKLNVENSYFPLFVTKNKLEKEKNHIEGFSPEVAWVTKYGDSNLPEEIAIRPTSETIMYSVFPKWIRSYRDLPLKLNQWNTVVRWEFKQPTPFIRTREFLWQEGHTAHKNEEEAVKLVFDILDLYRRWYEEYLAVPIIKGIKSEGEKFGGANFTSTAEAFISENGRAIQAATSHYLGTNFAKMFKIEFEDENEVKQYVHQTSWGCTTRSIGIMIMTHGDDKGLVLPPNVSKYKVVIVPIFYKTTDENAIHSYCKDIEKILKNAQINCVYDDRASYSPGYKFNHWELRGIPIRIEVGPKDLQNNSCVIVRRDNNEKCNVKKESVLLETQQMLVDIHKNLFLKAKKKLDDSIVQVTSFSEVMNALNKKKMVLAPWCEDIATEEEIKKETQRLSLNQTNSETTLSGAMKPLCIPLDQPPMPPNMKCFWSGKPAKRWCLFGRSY

HsProRS = HsProRS (Homo sapiens, UniProt P07814); assay: TR-FRET ligand displacement assay with tracer MAT379 (CoraFluor-1-Halo and anti-His6 antibody formats); type: binding; parameters: made in house; host or cells: E. coli SoluBL-21; details: for TR-FRET dose-response, normalized signal (SI Fig 11): individual replicates
HsProRS, sequence (P07814 996-1512): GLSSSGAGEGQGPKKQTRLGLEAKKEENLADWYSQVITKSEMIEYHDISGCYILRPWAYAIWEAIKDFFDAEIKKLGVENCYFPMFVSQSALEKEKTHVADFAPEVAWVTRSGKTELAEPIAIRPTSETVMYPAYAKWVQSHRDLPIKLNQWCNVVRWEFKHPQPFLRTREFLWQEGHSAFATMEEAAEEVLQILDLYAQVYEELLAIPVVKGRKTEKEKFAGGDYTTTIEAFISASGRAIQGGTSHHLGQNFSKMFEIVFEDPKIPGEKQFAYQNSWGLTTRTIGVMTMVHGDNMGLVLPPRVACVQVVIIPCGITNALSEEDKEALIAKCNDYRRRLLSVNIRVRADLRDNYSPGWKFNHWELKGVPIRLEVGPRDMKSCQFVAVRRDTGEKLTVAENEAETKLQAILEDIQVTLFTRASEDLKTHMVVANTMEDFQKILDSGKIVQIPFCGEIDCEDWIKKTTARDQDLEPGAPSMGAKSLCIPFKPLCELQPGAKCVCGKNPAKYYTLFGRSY

## NC1(C(=O)Nc2nccnc2C(=O)NC2Cc3ccccc3C2)CCCCC1 [compound 17]
P. falciparum Dd2-2D4
  EC50: 5.79 µM
PfcProRS; Log[inhibitor] (M) -5.000
  dose-response signal (normalized), SI Fig 8: -2.16E-02 and 3.35E-02 and 3.85E-02
PfcProRS; Log[inhibitor] (M) -5.301
  dose-response signal (normalized), SI Fig 8: 9.18E-02 and 6.95E-02 and 1.07E-01
PfcProRS; Log[inhibitor] (M) -5.601
  dose-response signal (normalized), SI Fig 8: 1.19E-01 and 1.25E-01 and 1.05E-01
PfcProRS; Log[inhibitor] (M) -5.904
  dose-response signal (normalized), SI Fig 8: 2.12E-01 and 2.21E-01 and 2.19E-01
PfcProRS; Log[inhibitor] (M) -6.208
  dose-response signal (normalized), SI Fig 8: 4.81E-01 and 4.00E-01 and 5.13E-01
PfcProRS; Log[inhibitor] (M) -6.509
  dose-response signal (normalized), SI Fig 8: 7.01E-01 and 7.64E-01 and 7.83E-01
PfcProRS; Log[inhibitor] (M) -6.796
  dose-response signal (normalized), SI Fig 8: 9.36E-01 and 8.53E-01 and 9.43E-01
PfcProRS; Log[inhibitor] (M) -7.108
  dose-response signal (normalized), SI Fig 8: 1.01E+00 and 9.81E-01 and 1.06E+00
PfcProRS; Log[inhibitor] (M) -7.409
  dose-response signal (normalized), SI Fig 8: 1.04E+00 and 9.85E-01 and 1.08E+00
PfcProRS; Log[inhibitor] (M) -7.710
  dose-response signal (normalized), SI Fig 8: 9.36E-01 and 1.05E+00 and 9.73E-01
PfcProRS; Log[inhibitor] (M) -8.000
  dose-response signal (normalized), SI Fig 8: 9.16E-01 and 9.94E-01 and 1.09E+00
PfcProRS; Log[inhibitor] (M) -8.301
  dose-response signal (normalized), SI Fig 8: 1.01E+00 and 9.14E-01 and 9.61E-01
PfcProRS; Log[inhibitor] (M) -8.602
  dose-response signal (normalized), SI Fig 8: 9.67E-01 and 1.05E+00 and 9.29E-01
PfcProRS; Log[inhibitor] (M) -9.000
  dose-response signal (normalized), SI Fig 8: 9.54E-01 and 9.96E-01 and 9.84E-01
PfcProRS; Log[inhibitor] (M) -9.301
  dose-response signal (normalized), SI Fig 8: 9.59E-01 and 9.29E-01 and 9.60E-01
PfcProRS; SI Fig 16a, values on -log scale
  PfcProRS -- best Kd: 6.883
HsProRS; HsProRS (KD [nM]) mean, no added proline/ATP (-)
  Kd: 4430 nM
HsProRS; HsProRS - best Kd, SI Fig 16a, values on -log scale
  Kd: 25.5 nM
HsProRS; Log[inhibitor] (M) -5.000
  normalized TR-FRET ligand displacement signal, dose-response replicates (SI Fig 6): 2.29E-01 and 2.88E-01 and 2.34E-01
  TR-FRET dose-response, normalized signal (SI Fig 11): 3.10E-01 and 3.50E-01 and 2.83E-01
HsProRS; Log[inhibitor] (M) -5.301
  normalized TR-FRET ligand displacement signal, dose-response replicates (SI Fig 6): 4.79E-01 and 4.33E-01 and 5.59E-01
  TR-FRET dose-response, normalized signal (SI Fig 11): 5.37E-01 (2×) and 4.61E-01
HsProRS; Log[inhibitor] (M) -5.601
  normalized TR-FRET ligand displacement signal, dose-response replicates (SI Fig 6): 7.03E-01 and 7.28E-01 and 7.31E-01
  TR-FRET dose-response, normalized signal (SI Fig 11): 6.81E-01 and 6.32E-01 and 7.28E-01
HsProRS; Log[inhibitor] (M) -5.904
  normalized TR-FRET ligand displacement signal, dose-response replicates (SI Fig 6): 9.55E-01 and 9.39E-01 and 8.52E-01
  TR-FRET dose-response, normalized signal (SI Fig 11): 7.93E-01 and 8.32E-01 and 8.75E-01
HsProRS; Log[inhibitor] (M) -6.208
  normalized TR-FRET ligand displacement signal, dose-response replicates (SI Fig 6): 9.44E-01 and 9.23E-01 and 8.86E-01
  TR-FRET dose-response, normalized signal (SI Fig 11): 9.35E-01 and 8.64E-01 and 9.27E-01
HsProRS; Log[inhibitor] (M) -6.509
  normalized TR-FRET ligand displacement signal, dose-response replicates (SI Fig 6): 9.47E-01 and 9.84E-01 and 9.68E-01
  TR-FRET dose-response, normalized signal (SI Fig 11): 8.93E-01 and 9.27E-01 and 9.36E-01
HsProRS; Log[inhibitor] (M) -6.796
  normalized TR-FRET ligand displacement signal, dose-response replicates (SI Fig 6): 9.18E-01 and 9.88E-01 and 9.43E-01
  TR-FRET dose-response, normalized signal (SI Fig 11): 9.97E-01 and 9.65E-01 and 9.84E-01
HsProRS; Log[inhibitor] (M) -7.108
  normalized TR-FRET ligand displacement signal, dose-response replicates (SI Fig 6): 9.90E-01 and 9.75E-01 and 9.07E-01
  TR-FRET dose-response, normalized signal (SI Fig 11): 9.67E-01 and 9.70E-01 and 9.86E-01
HsProRS; Log[inhibitor] (M) -7.409
  normalized TR-FRET ligand displacement signal, dose-response replicates (SI Fig 6): 1.03E+00 and 1.00E+00 and 1.02E+00
  TR-FRET dose-response, normalized signal (SI Fig 11): 9.20E-01 and 9.49E-01 and 9.94E-01
HsProRS; Log[inhibitor] (M) -7.710
  normalized TR-FRET ligand displacement signal, dose-response replicates (SI Fig 6): 1.02E+00 and 9.03E-01 and 1.03E+00
  TR-FRET dose-response, normalized signal (SI Fig 11): 9.99E-01 and 9.64E-01 and 1.05E+00
HsProRS; Log[inhibitor] (M) -8.000
  normalized TR-FRET ligand displacement signal, dose-response replicates (SI Fig 6): 1.01E+00 and 9.27E-01 and 9.75E-01
  TR-FRET dose-response, normalized signal (SI Fig 11): 1.01E+00 and 9.57E-01 and 9.53E-01
HsProRS; Log[inhibitor] (M) -8.301
  normalized TR-FRET ligand displacement signal, dose-response replicates (SI Fig 6): 1.01E+00 and 1.00E+00 and 1.05E+00
  TR-FRET dose-response, normalized signal (SI Fig 11): 9.70E-01 and 9.81E-01 and 1.01E+00
HsProRS; Log[inhibitor] (M) -8.602
  normalized TR-FRET ligand displacement signal, dose-response replicates (SI Fig 6): 9.94E-01 and 1.05E+00 and 1.03E+00
  TR-FRET dose-response, normalized signal (SI Fig 11): 9.48E-01 and 9.63E-01 and 9.29E-01
HsProRS; Log[inhibitor] (M) -9.000
  normalized TR-FRET ligand displacement signal, dose-response replicates (SI Fig 6): 9.41E-01 and 1.01E+00 and 9.67E-01
  TR-FRET dose-response, normalized signal (SI Fig 11): 9.46E-01 and 9.80E-01 and 9.64E-01
HsProRS; Log[inhibitor] (M) -9.301
  normalized TR-FRET ligand displacement signal, dose-response replicates (SI Fig 6): 1.02E+00 and 9.62E-01 and 8.95E-01
  TR-FRET dose-response, normalized signal (SI Fig 11): 9.77E-01 (2×) and 9.15E-01
